Test results from ChEMBL document CHEMBL3867476, “Novel 5-substituted 3-hydroxyphenyl and 3-nitrophenyl ethers of S-prolinol as α4β2-nicotinic acetylcholine receptor ligands” (Bioorg Med Chem Lett, 2016).

How the values were obtained:
[1] = biological target: T1, Neuronal acetylcholine receptor; alpha4/beta2 (Rattus norvegicus, UniProt P09483+P12390); experiment: Displacement of [3H]-epibatidine from alpha4beta2-nACHR in rat cerebral cortex membranes preincubated for 30 mins followed by overnight incubation with [3H]-epibatine; type: cell membranes, Membrane
T1 sequence (P09483 whole entry): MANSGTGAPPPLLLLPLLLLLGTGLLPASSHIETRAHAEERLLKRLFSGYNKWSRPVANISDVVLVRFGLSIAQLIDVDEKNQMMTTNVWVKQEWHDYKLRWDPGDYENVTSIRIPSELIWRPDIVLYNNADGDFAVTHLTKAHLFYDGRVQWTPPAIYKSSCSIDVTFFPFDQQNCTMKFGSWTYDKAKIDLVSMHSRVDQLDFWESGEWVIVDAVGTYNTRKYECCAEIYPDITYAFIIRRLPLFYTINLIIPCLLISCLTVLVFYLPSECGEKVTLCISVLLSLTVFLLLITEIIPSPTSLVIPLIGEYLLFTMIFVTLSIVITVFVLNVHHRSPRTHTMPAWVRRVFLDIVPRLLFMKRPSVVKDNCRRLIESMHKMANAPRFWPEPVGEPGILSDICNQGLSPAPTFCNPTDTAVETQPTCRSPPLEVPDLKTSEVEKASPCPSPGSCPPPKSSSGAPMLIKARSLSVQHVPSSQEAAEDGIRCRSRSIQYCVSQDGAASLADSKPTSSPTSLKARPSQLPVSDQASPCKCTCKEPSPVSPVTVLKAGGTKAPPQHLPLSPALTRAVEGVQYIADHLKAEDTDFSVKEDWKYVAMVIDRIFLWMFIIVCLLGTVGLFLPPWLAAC
T1 sequence (P12390 whole entry): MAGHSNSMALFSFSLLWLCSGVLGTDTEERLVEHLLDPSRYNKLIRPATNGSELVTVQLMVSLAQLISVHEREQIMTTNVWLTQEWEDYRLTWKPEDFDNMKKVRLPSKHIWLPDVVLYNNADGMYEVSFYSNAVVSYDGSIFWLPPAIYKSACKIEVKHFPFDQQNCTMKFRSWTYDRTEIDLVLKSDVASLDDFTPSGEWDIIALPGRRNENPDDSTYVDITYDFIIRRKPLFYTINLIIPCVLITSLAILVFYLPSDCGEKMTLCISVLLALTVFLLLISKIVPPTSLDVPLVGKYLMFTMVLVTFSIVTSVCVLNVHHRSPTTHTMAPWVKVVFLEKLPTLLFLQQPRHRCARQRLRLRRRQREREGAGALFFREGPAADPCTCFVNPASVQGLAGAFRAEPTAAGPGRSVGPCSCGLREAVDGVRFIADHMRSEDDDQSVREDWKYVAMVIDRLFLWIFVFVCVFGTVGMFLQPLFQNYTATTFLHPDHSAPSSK

[2] = biological target: Neuronal acetylcholine receptor; alpha3/beta4 (Homo sapiens, UniProt P30926+P32297); experiment: Displacement of [3H]-epibatine from human alpha3beta4-nACHR expressed in […] cell membranes preincubated for 5 mins followed by overnight incubation with [3H]-epibatine by liquid scintillation counting analysis
Neuronal acetylcholine receptor; alpha3/beta4, sequence (P30926 whole entry): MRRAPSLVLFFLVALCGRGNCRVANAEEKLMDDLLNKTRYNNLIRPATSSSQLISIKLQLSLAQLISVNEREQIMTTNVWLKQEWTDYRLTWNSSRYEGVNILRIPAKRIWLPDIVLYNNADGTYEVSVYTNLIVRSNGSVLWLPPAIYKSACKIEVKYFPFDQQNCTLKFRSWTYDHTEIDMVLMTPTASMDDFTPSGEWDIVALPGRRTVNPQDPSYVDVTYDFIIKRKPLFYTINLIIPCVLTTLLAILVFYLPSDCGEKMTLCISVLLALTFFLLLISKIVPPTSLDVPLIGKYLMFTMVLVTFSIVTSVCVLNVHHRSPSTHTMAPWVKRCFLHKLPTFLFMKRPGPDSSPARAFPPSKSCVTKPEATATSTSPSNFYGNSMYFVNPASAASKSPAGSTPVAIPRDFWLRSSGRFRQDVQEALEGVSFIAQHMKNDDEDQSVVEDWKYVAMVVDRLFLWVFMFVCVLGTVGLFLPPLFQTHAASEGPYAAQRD
Neuronal acetylcholine receptor; alpha3/beta4, sequence (P32297 whole entry): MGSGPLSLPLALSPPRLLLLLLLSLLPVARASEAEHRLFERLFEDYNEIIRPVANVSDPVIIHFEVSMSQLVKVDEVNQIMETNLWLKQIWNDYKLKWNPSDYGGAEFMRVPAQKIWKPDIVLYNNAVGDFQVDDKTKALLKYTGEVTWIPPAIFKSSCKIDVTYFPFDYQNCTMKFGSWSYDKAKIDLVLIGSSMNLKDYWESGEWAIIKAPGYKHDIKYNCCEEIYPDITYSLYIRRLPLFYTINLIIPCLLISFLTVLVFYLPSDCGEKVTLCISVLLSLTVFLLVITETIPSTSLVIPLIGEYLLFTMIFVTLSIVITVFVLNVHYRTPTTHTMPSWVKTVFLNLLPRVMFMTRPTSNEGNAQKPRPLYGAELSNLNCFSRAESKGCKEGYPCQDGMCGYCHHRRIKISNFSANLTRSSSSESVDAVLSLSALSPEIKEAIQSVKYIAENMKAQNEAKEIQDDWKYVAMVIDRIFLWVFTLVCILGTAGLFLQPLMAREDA

HEK243 = experiment: Selectivity ratio of Ki for human alpha3beta4-nACHR expressed in […] cells to Ki for alpha4beta2-nACHR in rat cerebral cortex membranes; type: cell-based
[3] = biological target: T1, Neuronal acetylcholine receptor; alpha4/beta2; experiment: Displacement of [3H]-cytisine from alpha4beta2-nACHR in rat whole brain membranes incubated for 60 mins; type: cell membranes, Membrane

| Structure (SMILES) | Ki [1] [nM] | Ki [2] [nM] | Ratio Ki (HEK243) | Ki [3] [nM] |
| --- | --- | --- | --- | --- |
| CN1CCC[C@H]1COc1cc(C#CCCCCO)cc([N+](=O)[O-])c1 | 14.2 | 1200 | 85 | – |
| COc1cccc(OC[C@@H]2CCCN2C)c1 | 600 | 4500 | 7 | – |
| CN1CCC[C@H]1COc1cc(O)cc(C#CCCCCO)c1 | 23.7 | 3100 | 131 | – |
| CN1CCC[C@H]1COc1cc(Br)cc([N+](=O)[O-])c1 | 55 | 415 | 8 | – |
| CN1CCC[C@H]1COc1cccc([N+](=O)[O-])c1 | 31.2 | 946 | 30 | 9 |
| CN1CCC[C@H]1COc1cc(O)cc(Br)c1 | 186 | 147 | 0.8 | – |
| CN1CCC[C@H]1COc1cc(O)cc(-c2ccc(O)cc2)c1 | 3.8 | 30 | 8 | – |
| CN1CCC[C@H]1COc1cccc(C#CCCCCO)c1 | 4400 | 8300 | 2 | – |
| CN1CCC[C@H]1COc1cc(O)cc(-c2ccccc2)c1 | 528 | 200 | 0.4 | – |
| CN1CCC[C@H]1COc1cc(-c2ccc(O)cc2)cc([N+](=O)[O-])c1 | 12 | 122 | 10 | – |
| CN1CCC[C@H]1COc1cc(-c2ccccc2)cc([N+](=O)[O-])c1 | 330 | 947 | 3 | – |
